{
  "source": "ChEMBL document CHEMBL1201862",
  "about": "“PubChem BioAssay data set” (2004)",
  "experiment_in_all_cases": "growth of human tumour cells (NCI), 48 h",
  "key": {"786-0": {"tested_on": "786-0"}, "ACHN": {"tested_on": "ACHN"}, "CCRF-CEM": {"tested_on": "CCRF-CEM"}, "COLO 205": {"tested_on": "COLO 205"}, "DLD-1": {"tested_on": "DLD-1"}, "DMS-114": {"tested_on": "DMS-114"}, "DMS-273": {"tested_on": "DMS-273"}, "EKVX": {"tested_on": "EKVX"}, "HCC 2998": {"tested_on": "HCC 2998"}, "HCT-116": {"tested_on": "HCT-116"}, "HCT-15": {"tested_on": "HCT-15"}, "HL-60": {"tested_on": "HL-60"}, "HOP-18": {"tested_on": "HOP-18"}, "HOP-62": {"tested_on": "HOP-62"}, "HOP-92": {"tested_on": "HOP-92"}, "HT-29": {"tested_on": "HT-29"}, "IGROV-1": {"tested_on": "IGROV-1"}, "K562": {"tested_on": "K562"}, "KM-20L2": {"tested_on": "KM-20L2"}, "KM12": {"tested_on": "KM12"}, "LOX IMVI": {"tested_on": "LOX IMVI"}, "LXFL 529": {"tested_on": "LXFL 529"}, "M14": {"tested_on": "M14"}, "MOLT-4": {"tested_on": "MOLT-4"}, "Malme-3M": {"tested_on": "Malme-3M"}, "NCI-H226": {"tested_on": "NCI-H226"}, "NCI-H23": {"tested_on": "NCI-H23"}, "NCI-H460": {"tested_on": "NCI-H460"}, "NCI-H522": {"tested_on": "NCI-H522"}, "OVCAR-3": {"tested_on": "OVCAR-3"}, "OVCAR-5": {"tested_on": "OVCAR-5"}, "OVCAR-8": {"tested_on": "OVCAR-8"}, "RPMI-8226": {"tested_on": "RPMI-8226"}, "RXF 393": {"tested_on": "RXF 393"}, "RXF 631": {"tested_on": "RXF 631"}, "SF-268": {"tested_on": "SF-268"}, "SF-295": {"tested_on": "SF-295"}, "SF-539": {"tested_on": "SF-539"}, "SK-MEL-28": {"tested_on": "SK-MEL-28"}, "SK-MEL-2": {"tested_on": "SK-MEL-2"}, "SK-MEL-5": {"tested_on": "SK-MEL-5"}, "SK-OV-3": {"tested_on": "SK-OV-3"}, "SN12C": {"tested_on": "SN12C"}, "SNB-19": {"tested_on": "SNB-19"}, "SNB-75": {"tested_on": "SNB-75"}, "SNB-78": {"tested_on": "SNB-78"}, "SR": {"tested_on": "SR"}, "SW-620": {"tested_on": "SW-620"}, "TK-10": {"tested_on": "TK-10"}, "U-251": {"tested_on": "U-251"}, "UACC-257": {"tested_on": "UACC-257"}, "UACC-62": {"tested_on": "UACC-62"}, "UO-31": {"tested_on": "UO-31"}, "XF498": {"tested_on": "XF498"}},
  "note": "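Values below derive from 48-hour exposures of cells grown in 96-well plates, with endpoints linearly interpolated between the two concentrations bracketing the appropriate inhibition level. GI50 marks 50% less growth.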 Active and inactive are the calls of the source. Rule as the data show it: active = GI50 up to about 1.1 µM and inactive = higher.",
  "data": [
    {"smiles": "COC1C2c3cc4c(cc3CC(C#N)(c3ccccc32)N1C(=O)c1ccccc1)OCO4", "note": "(centres undefined)", "values": [
      {"measurement": "GI50", "setting": "786-0", "value": "> 100 µM (inactive)"},
      {"measurement": "GI50", "setting": "ACHN", "value": "> 100 µM (inactive)"},
      {"measurement": "GI50", "setting": "CCRF-CEM", "value": "> 100 µM (inactive)"},
      {"measurement": "GI50", "setting": "COLO 205", "value": "> 100 µM (inactive)"},
      {"measurement": "GI50", "setting": "DLD-1", "value": "> 100 µM (inactive)"},
      {"measurement": "GI50", "setting": "DMS-114", "value": "70.6 µM (inactive)"},
      {"measurement": "GI50", "setting": "DMS-273", "value": "> 100 µM (inactive)"},
      {"measurement": "GI50", "setting": "EKVX", "value": "> 100 µM (inactive)"},
      {"measurement": "GI50", "setting": "HCC 2998", "value": "> 100 µM (inactive)"},
      {"measurement": "GI50", "setting": "HCT-116", "value": "> 100 µM (inactive)"},
      {"measurement": "GI50", "setting": "HCT-15", "value": "> 100", "unit": "µM"},
      {"measurement": "GI50", "setting": "HL-60", "value": "> 100 µM (inactive)"},
      {"measurement": "GI50", "setting": "HOP-18", "value": "> 100 µM (inactive)"},
      {"measurement": "GI50", "setting": "HOP-62", "value": "48 µM (inactive)"},
      {"measurement": "GI50", "setting": "HOP-92", "value": "> 100 µM (inactive)"},
      {"measurement": "GI50", "setting": "HT-29", "value": "> 100 µM (inactive)"},
      {"measurement": "GI50", "setting": "IGROV-1", "value": "> 100 µM (inactive)"},
      {"measurement": "GI50", "setting": "K562", "value": "54.6 µM (inactive)"},
      {"measurement": "GI50", "setting": "KM-20L2", "value": "> 100 µM (inactive)"},
      {"measurement": "GI50", "setting": "KM12", "value": "> 100 µM (inactive)"},
      {"measurement": "GI50", "setting": "LOX IMVI", "value": "> 100 µM (inactive)"},
      {"measurement": "GI50", "setting": "LXFL 529", "value": "> 100 µM (inactive)"},
      {"measurement": "GI50", "setting": "M14", "value": "> 100 µM (inactive)"},
      {"measurement": "GI50", "setting": "MOLT-4", "value": "97.5 µM (inactive)"},
      {"measurement": "GI50", "setting": "Malme-3M", "value": "> 100 µM (inactive)"},
      {"measurement": "GI50", "setting": "NCI-H226", "value": "93.3 µM (inactive)"},
      {"measurement": "GI50", "setting": "NCI-H23", "value": "> 100 µM (inactive)"},
      {"measurement": "GI50", "setting": "NCI-H460", "value": "> 100 µM (inactive)"},
      {"measurement": "GI50", "setting": "NCI-H522", "value": "87.3 µM (inactive)"},
      {"measurement": "GI50", "setting": "OVCAR-3", "value": "> 100 µM (inactive)"},
      {"measurement": "GI50", "setting": "OVCAR-5", "value": "> 100 µM (inactive)"},
      {"measurement": "GI50", "setting": "OVCAR-8", "value": "> 100 µM (inactive)"},
      {"measurement": "GI50", "setting": "RPMI-8226", "value": "21 µM (inactive)"},
      {"measurement": "GI50", "setting": "RXF 393", "value": "32.2 µM (inactive)"},
      {"measurement": "GI50", "setting": "RXF 631", "value": "> 100 µM (inactive)"},
      {"measurement": "GI50", "setting": "SF-268", "value": "> 100 µM (inactive)"},
      {"measurement": "GI50", "setting": "SF-295", "value": "> 100 µM (inactive)"},
      {"measurement": "GI50", "setting": "SF-539", "value": "> 100 µM (inactive)"},
      {"measurement": "GI50", "setting": "SK-MEL-28", "value": "> 100 µM (inactive)"},
      {"measurement": "GI50", "setting": "SK-MEL-2", "value": "> 100 µM (inactive)"},
      {"measurement": "GI50", "setting": "SK-MEL-5", "value": "33 µM (inactive)"},
      {"measurement": "GI50", "setting": "SK-OV-3", "value": "> 100 µM (inactive)"},
      {"measurement": "GI50", "setting": "SN12C", "value": "> 100 µM (inactive)"},
      {"measurement": "GI50", "setting": "SNB-19", "value": "> 100 µM (inactive)"},
      {"measurement": "GI50", "setting": "SNB-75", "value": "> 100 µM (inactive)"},
      {"measurement": "GI50", "setting": "SNB-78", "value": "> 100 µM (inactive)"},
      {"measurement": "GI50", "setting": "SR", "value": "54.7 µM (inactive)"},
      {"measurement": "GI50", "setting": "SW-620", "value": "> 100 µM (inactive)"},
      {"measurement": "GI50", "setting": "TK-10", "value": "> 100 µM (inactive)"},
      {"measurement": "GI50", "setting": "U-251", "value": "> 100 µM (inactive)"},
      {"measurement": "GI50", "setting": "UACC-257", "value": "> 100 µM (inactive)"},
      {"measurement": "GI50", "setting": "UACC-62", "value": "4.94 µM (inactive)"},
      {"measurement": "GI50", "setting": "UO-31", "value": "78.3 µM (inactive)"},
      {"measurement": "GI50", "setting": "XF498", "value": "> 100 µM (inactive)"}
    ]}
  ]
}
